≈ marks a conversion by molar mass, not a printed value. Like-named read-outs stand apart in the source and are kept apart here. Positions of bridges follow the written chain, without caps; N, C: chain ends. Non-standard residues stand in square brackets, D forms with d. Residues, ends and D or L forms follow the SMILES beside them. NMeF = CN[C@@H](Cc1ccccc1)C(=O)O; Cha = N[C@@H](CC1CCCCC1)C(=O)O; NMeNva = CCC[C@H](NC)C(=O)O; NMeAbu = CC[C@H](NC)C(=O)O; NMeC = CN[C@@H](CS)C(=O)O; NMeA = CN[C@@H](C)C(=O)O; dAbu = CC[C@@H](N)C(=O)O; dNMeA = CN[C@H](C)C(=O)O; Nva = CCC[C@H](N)C(=O)O; Abu = CC[C@H](N)C(=O)O; Nleu = CC(C)CNCC(=O)O; NPrGly = CCCNCC(=O)O; NEtG = CCNCC(=O)O
Key:
[1] = MDCK
Procedure: (§1) We also tested the permeabilities of the pure compounds in a cell-based trans-well permeability assay using Mdr1 knockout Madin–Darby canine kidney (MDCK) cells which minimize the endogenous efflux activity of traditional MDCK cells.[54]
(§2) The gMDCKI cell line (overexpressed cell line of Madin -Darby Canine Kidney which acquired from the NIH)
(§3) maintained in DMEM medium supplemented with 1% pen -strep, 5 µg/mL Plasmocin, and 10% FBS under
(§4) standard culture conditions (37 °C, 95% humidity, and 5% CO2), were seeded (0.75 x 10^5 cells) on the HTS
(§5) Transwell-96 permeable support (Corning) to form a confluent monolayer for two days.
(§6) All experimental steps were fully automated on Hamilton Vantage. Compound stock solution (1 mM in
(§7) DMSO) was diluted (10 μM final in HBSS, pH 7.4) with Lucifer Yellow as leakage indicator (20 μM). After
(§8) washing with HBSS buffer, the solution of test compounds was added to the apical side of the monolayers.
(§9) The plate was incubated for 3 h at 37 °C. T0 samples (10 µL of the 10 µM compounds diluted solution with
(§10) LY) were transferred to a 96-well plate, and then 40 µL of HBSS was added. After 3 hours, 50 μL basolateral
(§11) samples in the receiving plate were transferred to a fresh 96-well plate and added 100 μL of IS solution
(§12) (Propranolol). LY were read by plate reader and the samples were analyzed by LC/MS/MS.
(§13) The apparent permeability coefficient (Papp) is calculated from the permeation rate and compound
concentration at t=0h and t=3h. Where:
(§14) dQ/dt: amount of product present in the basal (A-B) or apical (B-A) compartment as a function of time
A: area of transwell (cm2).
(§15) C0: initial concentration of product applied in the apical (A -B) or basal (B-A) compartment (nmol/ml).

[2] = tested on: Mdr1 knockout Madin–Darby canine kidney (MDCK) cells; details: for MDCK Papp_avg: dog, 3 h, 10 µM, pH 7.4
Procedure: as §1, §2, §3, §4, §5, §6, §7, §8, §9, §10, §11, §12, §13
concentration at t=0h and t=3h. Where:
as §14
A: area of transwell (cm2).
as §15

[3] = PAMPA, individually resynthesized pure compounds (primary protocol);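 note: artificial membrane of 1% soy lecithin in dodecane on a filter plate, donor and acceptor buffer PBS pH 7.4 with 5% DMSO, incubated overnight at room temperature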
Procedure: (§16) assay was carried out with a 96-well donor plate with 0.45 μ hydrophobic Immobilon-P membrane supports
(§17) (Millipore MAIPNTR10) and a 96-well Teflon acceptor plate (Millipore MSSACCEPTOR). The PAMPA
protocol then proceeded as follows:
(§18) Donor well solutions were prepared to a volume of 1 000 µL with the analytes as a solution in 1X
(§19) PBS pH 7.4 and 5% DMSO. To a 3 mL Eppendorf tube was added 950 µL of 1X PBS pH 7.4, 40
Analyte – 10 µM per compound
(§20) sonicated (5 min) to ensure full dissolution of the lecithin. The donor membrane plate was turned
(§21) upside down and bottom of the membranes exposed. 5 µL of the 1% soy lecithin solution in
(§22) dodecane was then placed on the bottom of the membrane, allowing the drop to spread across the
(§23) full area of the membrane. Any membranes with visible damage were not used in the assay. The
(§24) membranes were allowed to equilibrate for 5 min before loading.
(§25) 3. Each well within the Teflon block acceptor plate that was to be used in the assay was then loaded
(§26) with 300 µL of 1X PBS pH 7.4 and 5% DMSO.
(§27) Working without break, 150 µL of each donor well solution was transferred from the to the 96-well
(§28) donor plate. Each mixture of interest was r un in quadruplicate, using a new well for each replicate.
(§29) As soon as the 96-well donor plate was finished being loaded, it was gently placed into the 96-well
(§30) Teflon acceptor plate, taking care not to trap any air bubbles beneath the membrane.
(§31) The donor/acceptor plates were covered gently with the lid to minimize evaporation and transferred
(§32) gently as a system to a sealed chamber and left to sit overnight at room temperature. The chamber
(§33) was kept from drying by placing a wet paper towel within to prevent evaporation.
(§34) After ~19-20 hours the donor plate was removed from the acceptor plate.
(§35) 50 µL of each well (donor and acceptor) were transferred to a 96 -well plate and diluted with 50 µL
(§36) of methanol prior to heat sealing and quantification by UPLC -MS.

[4] = PAMPA, 10 µM, pH 7.4
Procedure: (§37) Passive permeabilities of the 36 compounds were measured in multiplex as mixtures of six compounds each using the parallel artificial membrane permeability assay (PAMPA).[44]−[46]
(§38) Protocol is identical for both mixture and pure compound analysis.
(§39) Two of the following: Carbamazepine (CBZ), propranolol (Prop), and 1NMe35 were
(§40) included as internal standards and prepared as DMSO stocks at a concentration of 2 000 µM.
as §16
(§41) (Millipore MAIPNTR10) and a 96-well Teflon acceptor plate (Millipore MSSACCEPTOR).
protocol then proceeded as follows:
as §18, §19
(§42) The solutions were vortexed and set aside.
Analyte – 10 µM per compound
(§43) A 1% solution of soy lecithin in dodecane was freshly prepared in a 3 mL Eppendorf tube and
as §20, §21, §22
(§44) full area of the membrane. Any membranes with visible damage were not used in the assay.
as §24
(§45) Each well within the Teflon block acceptor plate that was to be used in the assay was then loaded
as §26, §27, §28, §29, §30, §31, §32, §33, §34, §35, §36

[5] = 10 µM, pH 7.4
Procedure: as §16, §17
protocol then proceeded as follows:
as §18, §19
Analyte – 10 µM per compound
as §20, §21, §22, §23, §24, §25, §26, §27, §28, §29, §30, §31, §32, §33, §34, §35, §36

in vitro [6] = details: PAMPA
Procedure: as §16, §17
protocol then proceeded as follows:
as §18, §19
Analyte – 10 µM per compound
as §20, §21, §22, §23, §24, §25, §26, §27, §28, §29, §30, §31, §32, §33, §34, §35, §36

in vitro [7] = details: dog, pH 7.4
Procedure: as §1, §2, §3, §4, §5, §6, §7, §8, §9, §10, §11, §12, §13
concentration at t=0h and t=3h. Where:
as §14
A: area of transwell (cm2).
as §15

[8] = PAMPA
Procedure: as §16, §17
protocol then proceeded as follows:
as §18, §19
Analyte – 10 µM per compound
as §20, §21, §22, §23, §24, §25, §26, §27, §28, §29, §30, §31, §32, §33, §34, §35, §36

[9] = design: method as in Fouché et al.; details: ref Fouché et al.; cited from earlier work
[10] = design: method as in Fouché et al.; details: rat; ref Fouché et al.; cited from earlier work
in vitro [11] = details: PAMPA, pH 7.4, Permeability (Papp) PAMPA (mixture)
Procedure: as §37, §38, §39, §40, §16, §41
protocol then proceeded as follows:
as §18, §19, §42
Analyte – 10 µM per compound
as §43, §20, §21, §22, §44, §24, §45, §26, §27, §28, §29, §30, §31, §32, §33, §34, §35, §36

[12] = pH 7.4, Permeability (Papp) PAMPA (indiv.)
[13] = pH 7.4, kinetic from dmso stock
[14] = pH 7.4, aqueous with cosolvent or surfactant or cyclodextrin, kinetic from dmso stock

Procedure for physchem: Kinetic Solubility PBS Protocol
4 µL of 10 mM compound in DMSO stock was added to 196 µL 1 X PBS pH 7.4 in a 96 -well microplate to
get a final concentration of 200 µM to shake for 24 hours at 1000 rpm. The sample was filtered sample
using a 96-Multiscreen HTS filter plate (Millipore MSSL BPC50) and a positive pressure manifold.

%R_avg [4]	PAMPA Papp_avg [5]	Papp at 10 µM (in vitro [6]; [12])	Papp A→B at 3 h, 10 µM (in vitro [7]; MDCK)	solubility kinetic at 24 h (physchem; [14])	Structure (SMILES)	Papp [1]	further results
					CCOC(=O)[C@@H]1CSCC(=O)N[C@H](CC)C(=O)N(C)[C@@H](C)C(=O)N[C@@H](CC(C)C)C(=O)N(C)[C@H](C)C(=O)N(CC(C)C)CC(=O)N[C@H](CC(C)C)C(=O)N(C)[C@H](C)C(=O)N[C@@H](CC(C)C)C(=O)N1C [A1, O=C(N(C)[C@H](C(OCC)=O)CSCC(N[C@@H](C(N(C)[C@@H](C)C(N[C@@H](CC(C)C)C(N(C)[C@H](C)C(N(CC(C)C)CC(N[C@@H]1CC(C)C)=O)=O)=O)=O)=O)CC)=O)[C@H](CC(C)C)NC([C@@H](C)N(C)C1=O)=O] ({CH2CO}-[dAbu][NMeA]L[dNMeA][Nleu][dL][dNMeA]L[NMeC]-OEt; thioether N-9)	9 ×10⁻⁶ cm/s	MDCK Pe_avg ([2]; resynthesized stereoscan compounds, 10 μM, HBSS pH 7.4, 3 h): 9.02 ×10⁻⁶ cm/s; Papp ([3]; PAMPA Papp, Figure 5): 10 ×10⁻⁶ cm/s; Papp ([3]; Papp): ~10 ×10⁻⁶ cm/s
17.1%	4.1 ×10⁻⁶ cm/s	4.1 ×10⁻⁶ cm/s	4.5 ×10⁻⁶ cm/s		CCOC(=O)[C@@H]1CSCC(=O)N[C@@H](CC(C)C)C(=O)N(C)[C@@H](C)C(=O)N[C@@H](CC(C)C)C(=O)N2CCC[C@@H]2C(=O)N(CC)CC(=O)N[C@@H](CC)C(=O)N(C)[C@@H](C)C(=O)N[C@@H](CC(C)C)C(=O)N1C [LA02, O=C(N(C)[C@H](C(OCC)=O)CSCC(N[C@H](C(N(C)[C@@H](C)C(N[C@@H](CC(C)C)C(N1[C@H](CCC1)C(N(CC)CC(N[C@H]2CC)=O)=O)=O)=O)=O)CC(C)C)=O)[C@H](CC(C)C)NC([C@H](C)N(C)C2=O)=O] ({CH2CO}-L[NMeA]L[dP][NEtG][Abu][NMeA]L[NMeC]-OEt; thioether N-9)		Papp at 3 h, 10 µM (in vitro [7]; MDCK): 4.5 ×10⁻⁶ cm/s; solubility kinetic at 24 h (physchem; [13]): 200 µM (≈ 196 µg/mL)
11.2%	3.3 ×10⁻⁶ cm/s	3.3 ×10⁻⁶ cm/s	6.5 ×10⁻⁶ cm/s	183 µM (≈ 185 µg/mL)	CCC[C@H]1C(=O)N[C@@H](CC)C(=O)N(C)[C@@H](C)C(=O)N[C@@H](CC(C)C)C(=O)N(C)[C@H](C(=O)OCC)CSCC(=O)N[C@@H](CC(C)C)C(=O)N(C)[C@@H](C)C(=O)N[C@@H](CC(C)C)C(=O)N2CCC[C@@H]2C(=O)N1C [LC04, O=C(N(C)[C@H](C(OCC)=O)CSCC(N[C@H](C(N(C)[C@@H](C)C(N[C@@H](CC(C)C)C(N1[C@H](CCC1)C(N(C)[C@@H](CCC)C(N[C@H]2CC)=O)=O)=O)=O)=O)CC(C)C)=O)[C@H](CC(C)C)NC([C@H](C)N(C)C2=O)=O] ({CH2CO}-L[NMeA]L[dP][NMeNva][Abu][NMeA]L[NMeC]-OEt; thioether N-9)		
					CC(C)C[C@@H]1NC(=O)[C@H](Cc2ccccc2)N(C)C(=O)[C@H]2CCCN2C(=O)[C@H](CC(C)C)NC(=O)[C@H](C)N(C)C(=O)[C@H](CC(C)C)NC(=O)[C@H](Cc2ccccc2)N(C)C(=O)[C@H]2CCCN2C(=O)[C@H](CC(C)C)NC(=O)[C@H](C)N(C)C1=O [compound 1] (cyclo(L[NMeA]L[dP][NMeF]L[NMeA]L[dP][NMeF]))	11.4 ×10⁻⁶ cm/s	Papp [8]: 5 ×10⁻⁶ cm/s; PAMPA Papp [9]: 5.01 × 10^–6 cm/s; oral bioavailability [10]: 46 %F
					CCOC(=O)[C@@H]1CSCC(=O)N[C@@H](CC)C(=O)N(C)[C@@H](C)C(=O)N[C@@H](CC(C)C)C(=O)N(C)[C@H](C)C(=O)N(CC(C)C)CC(=O)N[C@H](CC(C)C)C(=O)N(C)[C@H](C)C(=O)N[C@@H](CC(C)C)C(=O)N1C [A1-1L, O=C(N(C)[C@H](C(OCC)=O)CSCC(N[C@H](C(N(C)[C@@H](C)C(N[C@@H](CC(C)C)C(N(C)[C@H](C)C(N(CC(C)C)CC(N[C@@H]1CC(C)C)=O)=O)=O)=O)=O)CC)=O)[C@H](CC(C)C)NC([C@@H](C)N(C)C1=O)=O] ({CH2CO}-[Abu][NMeA]L[dNMeA][Nleu][dL][dNMeA]L[NMeC]-OEt; thioether N-9)	0.9 ×10⁻⁶ cm/s	Papp A→B (in vitro [7]): 0.93 ×10⁻⁶ cm/s
					CCOC(=O)[C@@H]1CSCC(=O)N[C@H](CC)C(=O)N(C)[C@@H](C)C(=O)N[C@@H](CC(C)C)C(=O)N(C)[C@H](C)C(=O)N(CC(C)C)CC(=O)N[C@@H](CC(C)C)C(=O)N(C)[C@H](C)C(=O)N[C@@H](CC(C)C)C(=O)N1C [A1-6L, O=C(N(C)[C@H](C(OCC)=O)CSCC(N[C@@H](C(N(C)[C@@H](C)C(N[C@@H](CC(C)C)C(N(C)[C@H](C)C(N(CC(C)C)CC(N[C@H]1CC(C)C)=O)=O)=O)=O)=O)CC)=O)[C@H](CC(C)C)NC([C@@H](C)N(C)C1=O)=O] ({CH2CO}-[dAbu][NMeA]L[dNMeA][Nleu]L[dNMeA]L[NMeC]-OEt; thioether N-9)	0.9 ×10⁻⁶ cm/s	Papp A→B (in vitro [7]): 0.86 ×10⁻⁶ cm/s
6.1%		0.3 ×10⁻⁶ cm/s	1.8 ×10⁻⁶ cm/s	10 µM (≈ 10.5 µg/mL)	CCC[C@@H]1NC(=O)[C@H](C)N(C)C(=O)[C@H](CC(C)C)NC(=O)CSC[C@@H](C(=O)OCC)N(C)C(=O)[C@H](CC(C)C)NC(=O)[C@H](C)N(C)C(=O)[C@H](CC2CCCCC2)NC(=O)[C@H](CC)N(C)C(=O)[C@H]2CCCN2C1=O [LC09, O=C(N(C)[C@H](C(OCC)=O)CSCC(N[C@H](C(N(C)[C@@H](C)C(N[C@@H](CCC)C(N1[C@H](CCC1)C(N(C)[C@@H](CC)C(N[C@H]2CC3CCCCC3)=O)=O)=O)=O)=O)CC(C)C)=O)[C@H](CC(C)C)NC([C@H](C)N(C)C2=O)=O] ({CH2CO}-L[NMeA][Nva][dP][NMeAbu][Cha][NMeA]L[NMeC]-OEt; thioether N-9)		MDCK Papp_avg ([2]; MDCK): 1.8 ×10⁻⁶ cm/s
35.8%			2.6 ×10⁻⁶ cm/s	105 µM (≈ 104 µg/mL)	CCCN1CC(=O)N[C@@H](CC(C)C)C(=O)N2CCC[C@@H]2C(=O)N(C)[C@@H](C)C(=O)N[C@@H](CC)C(=O)N(C)[C@@H](C)C(=O)N[C@@H](CC(C)C)C(=O)N(C)[C@H](C(=O)OCC)CSCC(=O)N[C@@H](CC(C)C)C1=O [LB04, O=C(N(C)[C@H](C(OCC)=O)CSCC(N[C@H](C1=O)CC(C)C)=O)[C@H](CC(C)C)NC([C@H](C)N(C)C([C@H](CC)NC([C@H](C)N(C)C([C@@H]2N(C([C@H](CC(C)C)NC(CN1CCC)=O)=O)CCC2)=O)=O)=O)=O] ({CH2CO}-L[NPrGly]L[dP][NMeA][Abu][NMeA]L[NMeC]-OEt; thioether N-9)		MDCK Papp_avg ([2]; MDCK): 2.6 ×10⁻⁶ cm/s
8.2%	3.86 ×10⁻⁶ cm/s	3.9 ×10⁻⁶ cm/s	4 ×10⁻⁶ cm/s		CCCN1CC(=O)N[C@@H](CC)C(=O)N(C)[C@@H](C)C(=O)N[C@@H](CC(C)C)C(=O)N(C)[C@H](C(=O)OCC)CSCC(=O)N[C@@H](CC(C)C)C(=O)N(C)[C@@H](C)C(=O)N[C@@H](CC(C)C)C(=O)N2CCC[C@@H]2C1=O [LA04, O=C(N(C)[C@H](C(OCC)=O)CSCC(N[C@H](C(N(C)[C@@H](C)C(N[C@@H](CC(C)C)C(N1[C@H](CCC1)C(N(CCC)CC(N[C@H]2CC)=O)=O)=O)=O)=O)CC(C)C)=O)[C@H](CC(C)C)NC([C@H](C)N(C)C2=O)=O] ({CH2CO}-L[NMeA]L[dP][NPrGly][Abu][NMeA]L[NMeC]-OEt; thioether N-9)		Papp at 10 µM (in vitro [11]): 4 ×10⁻⁶ cm/s; solubility kinetic at 24 h (physchem; [13]): 200 µM (≈ 199 µg/mL)
					CCOC(=O)[C@@H]1CSCC(=O)N[C@H](CC)C(=O)N(C)[C@@H](C)C(=O)N[C@@H](CC(C)C)C(=O)N2CCC[C@@H]2C(=O)N(CC(C)C)CC(=O)N[C@H](CC(C)C)C(=O)N(C)[C@H](C)C(=O)N[C@@H](CC(C)C)C(=O)N1C [A1-4dP, O=C(N(C)[C@H](C(OCC)=O)CSCC(N[C@@H](C(N(C)[C@@H](C)C(N[C@@H](CC(C)C)C(N1[C@H](CCC1)C(N(CC(C)C)CC(N[C@@H]2CC(C)C)=O)=O)=O)=O)=O)CC)=O)[C@H](CC(C)C)NC([C@@H](C)N(C)C2=O)=O] ({CH2CO}-[dAbu][NMeA]L[dP][Nleu][dL][dNMeA]L[NMeC]-OEt; thioether N-9)		Papp [8]: 0.3 ×10⁻⁶ cm/s; MDCK Papp ([2]; MDCK): 0.0 × 10^–6 cm/s; Papp at 10 µM (in vitro [6]; pH 7.4, PAMPA Pe_avg): 0.398 ×10⁻⁶ cm/s; Papp A→B at 3 h, 10 µM (in vitro [7]): 0.0246 ×10⁻⁶ cm/s
